Measurements taken from patent publication US8642647B2, “N1-benzo[1,3]dioxol-5-ylmethyl-N2-substituted biguanide derivative, preparation method thereof, and pharmaceutical composition containing same” (Hanall Biopharma Co., Ltd., priority 2008, dated 2014).

Columns and labels:
Format in all cases: cell-based
[1] = system: HepG2 cells; experiment: Measurement of gluconeogenesis inhibitory ability; settings: Homo sapiens, HepG2, 24 h, 100 μM compound, 24 hours, HepG2 cells; content of glucose formed from 14C-lactate; lower value = stronger inhibition; read-out: Gluconeogenesis inhibition (100 μM) aver.
Description: (§1) 2 mM metformin was used as a comparative compound for each of the plates (control group).
HepG2 cells (ATCC: American Type Culture Collection) were cultured in 10% serum-containing high glucose media, transferred to no serum-containing low glucose media (DMEM (Gibco), FBS (Gibco)), and then treated with 100 μM of each of the compounds for 24 hours. Then, the cells were treated with 0.5 μCi ^14C-lactate (Amersham Pharmacia) and 10 mM L-lactate (Sigma), and cultured for 4 hours. After cultivation, the media were removed therefrom, and the cells were washed with PBS, treated with 0.1N NaOH and kept at room temperature for 1 hour. Then, the cells were neutralized with 1N HCl, and the content of glucose formed in the cells was measured with a liquid scintillation counter.
A lower measurement value means an increased gluconeogenesis inhibitory ability.

[2] = system: HepG2 cells; experiment: Measurement of cholesterol synthesis inhibitory ability; settings: 24 hours, HepG2 cells, content of cholesterol formed, lower value = stronger inhibition; for Cholesterol (100 μM) aver.: 100 μM compound; for Cholesterol (500 μM) aver.: 500 μM compound
Description: as §1
A cholesterol synthesis inhibitory ability, which is an important function of AMPK (AMP-activated protein kinase), was measured using HepG2 cells (ATCC: American Type Culture Collection) as a hepatic cell model according to the following procedure.
The hepatic cell model HepG2 cells were cultured in 1% serum-containing media (DMEM (Gibco), FBS (Gibco)) for 24 hours, and then treated with 100 μM or 500 μM of each of the compounds prepared in Examples for 24 hours. Then, the cells were disrupted with a lysis solution (0.1 M potassium phosphate, pH 7.4, 0.05 M NaCl, 5 mM cholic acid, 0.1% Triton X-100 (Sigma)). To the disrupted cells was added the same volume of a reaction solution (2 U/ml of a cholesterol oxidizing agent, 2 U/ml of a peroxidase, 0.2 U/ml of a cholesterol esterase, and 300 μM of Amplex red as a fluorescent factor (Molecular Probe)), which was allowed to react at 37° C. for 30 minutes. After completion of the reaction, the content of cholesterol formed in the cell lysates was measured at a wavelength of 560/590 nm (ex/em) using a fluorescence microscope.
A lower measurement value means an increased cholesterol synthesis inhibitory ability.

[3] = system: HepG2 cells; experiment: Measurement of triglyceride synthesis inhibitory ability; settings: for Triglyceride (100 μM) aver.: 100 μM compound; for Triglyceride (100 μM) aver. / Triglyceride (500 μM) aver.: 24 hours, HepG2 cells, content of triglyceride formed, lower value = stronger inhibition; for Triglyceride (500 μM) aver.: 500 μM compound
Description: as §1
HepG2 cells (ATCC: American Type Culture Collection) were cultured in 1% serum-containing media (DMEM (Gibco), FBS (Gibco)) for 24 hours, and then treated with 100 μM or 500 μM of each of the compounds prepared in Examples for 24 hours. Then, the cells were disrupted with a lysis solution (0.1 M potassium phosphate, pH 7.4, 0.05 M NaCl, 5 mM cholic acid, 0.1% Triton X-100). To the disrupted cells was added the same volume of a reaction solution (0.76 U/ml of a glycerol kinase (Asan Pharmaceutical Co., Ltd.), […] of a peroxidase (Asan Pharmaceutical Co., Ltd.), 22.2 U/ml of a glycerol oxidizing agent (Asan Pharmaceutical Co., Ltd.), and 300 μM of Amplex red as a fluorescent factor (Molecular Probe)), which was allowed to react at 37° C. for 30 minutes. After completion of the reaction, the content of triglyceride formed in the cell lysates was measured at a wavelength of 560/590 nm (ex/em) using a fluorescence microscope.
A lower measurement value means an increased triglyceride synthesis inhibitory ability.

[4] = system: C2C12 cells; experiment: Measurement of glucose absorption ability; settings: 100 μM compound versus 2 mM metformin
Description: as §1
C2C12 cells (ATCC: American Type Culture Collection), a muscle cell model, were induced to differentiate into muscle cells in 2% bovine fetal serum-containing media (DMEM (Gibco), FBS (Gibco)) for 6 days. The C2C12 cells which differentiated into muscle cells were transferred to serum-free low glucose media (DMEM (Gibco), FBS (Gibco)), treated with 100 μM of each of the compounds, and then cultured with 1 μM of insulin for 24 hours. After cultivation, the cells were treated with 1 μCi ^3H-deoxy-glucose (Amersham Pharmacia) and 10 μM deoxy-glucose (Sigma) at 37° C. for 15 minutes. The media were removed therefrom, and the cells were washed twice with PBS (phosphate buffered saline). The washed cells were treated with 0.1N NaOH and neutralized with 1N HCl. The content of glucose absorbed into the cells was measured with a liquid scintillation counter.
A higher measurement value means a stronger ability to reduce insulin resistance.

Compound	activity at 100 µM [1] [%]	Cholesterol (100 μM) aver. [2]	Cholesterol (500 μM) aver. [2]	Triglyceride (100 μM) aver. [3]	Triglyceride (500 μM) aver. [3]	glucose absorption effect better than that of the control group [4]	effect in inhibiting triglyceride synthesis better than that of the control group ([3]; 100 μM compound versus 2 mM metformin)
Cl.N=C(N)NC(=NCc1ccccc1)NCc1ccc2c(c1)OCO2 [Example 5, N1-benzo[1,3]dioxol-5-ylmethyl-N2-benzyl biguanide hydrochloride]	108	30.3	−8.28	102.8	15.7	about 220 times	
Cl.N=C(N)NC(=Nc1ccc(Oc2ccccc2)cc1)NCc1ccc2c(c1)OCO2 [Example 30, N1-benzo[1,3]dioxol-5-ylmethyl-N2-(4-phenoxyphenyl)biguanide hydrochloride]	3.04	21.94	40.34	18.22	3.05		
COCCN=C(NCc1ccc2c(c1)OCO2)NC(=N)N.Cl [Example 31, N1-benzo[1,3]dioxol-5-ylmethyl-N2-(2-methoxyethyl)biguanide hydrochloride]	100	84.45	69.16	74.51	73.00		
Cl.N=C(N)NC(=Nc1ccc(Br)cc1)NCc1ccc2c(c1)OCO2 [Example 32, N1-benzo[1,3]dioxol-5-ylmethyl-N2-(4-bromophenyl)biguanide hydrochloride]	4.42	11.62	20.56	35.08	17.38		
CC(C)(C)c1ccc(N=C(NCc2ccc3c(c2)OCO3)NC(=N)N)cc1.Cl [Example 33, N1-benzo[1,3]dioxol-5-ylmethyl-N2-(4-t-butylphenyl)biguanide hydrochloride]	2.35	20.42	30.52	27.40	7.08		
Cl.N=C(N)NC(=Nc1cc(Cl)cc(Cl)c1)NCc1ccc2c(c1)OCO2 [Example 34, N1-benzo[1,3]dioxol-5-ylmethyl-N2-(3,5-dichlorophenyl)biguanide hydrochloride]	2.37	15.56	39.12	21.41	8.80		
Cl.N=C(N)NC(=NCc1ccc(Br)cc1)NCc1ccc2c(c1)OCO2 [Example 36, N1-benzo[1,3]dioxol-5-ylmethyl-N2-(4-bromobenzyl)biguanide hydrochloride]	92.9	25.31	40.17	61.93	24.04		
COc1ccc(CN=C(NCc2ccc3c(c2)OCO3)NC(=N)N)cc1.Cl [Example 37, N1-benzo[1,3]dioxol-5-ylmethyl-N2-(4-methoxybenzyl)biguanide hydrochloride]	104	60.36	32.20	62.82	58.60		at least 20 times
Cl.N=C(N)NC(=NC1CC1)NCc1ccc2c(c1)OCO2 [Example 38, N1-benzo[1,3]dioxol-5-ylmethyl-N2-cyclopropyl biguanide hydrochloride]	78.9	57.32	47.06	95.00	61.43		
CCCCN=C(NCc1ccc2c(c1)OCO2)NC(=N)N.Cl [Example 39, N1-benzo[1,3]dioxol-5-ylmethyl-N2-butyl biguanide hydrochloride]	87.3	70.48	49.52	98.77	64.23		
CCCCCN=C(NCc1ccc2c(c1)OCO2)NC(=N)N.Cl [Example 40, N1-benzo[1,3]dioxol-5-ylmethyl-N2-pentyl biguanide hydrochloride]	84.6	57.36	27.89	101.4	50.00		
Cl.N=C(N)NC(=Nc1cccc(Br)c1)NCc1ccc2c(c1)OCO2 [Example 41, N1-benzo[1,3]dioxol-5-ylmethyl-N2-(3-bromophenyl)biguanide hydrochloride]	0	23.61	32.23	25.51	19.79		
Cc1cccc(N=C(NCc2ccc3c(c2)OCO3)NC(=N)N)c1.Cl [Example 42, N1-benzo[1,3]dioxol-5-ylmethyl-N2-(3-methylphenyl)biguanide hydrochloride]	56.1	46.42	28.95	75.45	36.78		
Cl.N=C(N)NC(=NCc1ccc(F)cc1)NCc1ccc2c(c1)OCO2 [Example 43, N1-benzo[1,3]dioxol-5-ylmethyl-N2-(4-fluorobenzyl)biguanide hydrochloride]	83.5	73.10	47.65	82.02	63.67		
Cl.N=C(N)NC(=NCc1ccc(F)c(F)c1)NCc1ccc2c(c1)OCO2 [Example 44, N1-benzo[1,3]dioxol-5-ylmethyl-N2-(3,4-difluorobenzyl)biguanide hydrochloride]	103	74.32	49.84	78.42	56.79		
Cl.N=C(N)NC(=Nc1ccccc1)NCc1ccc2c(c1)OCO2 [Example 45, N1-benzo[1,3]dioxol-5-ylmethyl-N2-phenyl biguanide hydrochloride]	117	77.21	23.24	96.12	35.45		
COCCOCCOCCN=C(NCc1ccc2c(c1)OCO2)NC(=N)N.Cl [Example 46, N1-benzo[1,3]dioxol-5-ylmethyl-N2-(2-(2-(2-methoxyethoxy)ethoxy)ethyl)biguanide hydrochloride]	101	90.31	91.68	89.69	93.41		
